Test results reported in US10961238B2, “Modulators of hedgehog (Hh) signaling pathway” (E-THERAPEUTICS PLC, priority 2016, dated 2021).

System: C3H10T1/2 cells
Assay: C3H assay: differentiation of C3H10T1/2 cells by mSHH, measurement of alkaline phosphatase
Assay type: cell-based, mouse
Details: Mus musculus, C3H 10T1/2; C3H10T1/2 cells stimulated with mSHH for 72 hours; alkaline phosphatase activity; read-out: IC50 Ranges

Compound: CN(C)CC(=O)N1CC(S(=O)(=O)N2CCC(c3coc4cccnc34)CC2)C1 [Compound 329, 2-(dimethylamino)-1-[3-(4-furo[3,2-b]pyridin-3-ylpiperidin-1-yl)sulfonylaze-tidin-1-yl]ethanone]
- IC50: 1000 to 10000 nM

Compound: CC(C)N(CC(=O)N1CC(S(=O)(=O)N2CCC(c3coc4cccnc34)CC2)C1)C(C)C [Compound 330, 2-[di(propan-2-yl)amino]-1-[3-(4-furo[3,2-b]pyridin-3-ylpiperidin-1-yl)sulfonylaze-tidin-1-yl]ethanone]
- IC50: 10 to 100 nM

Compound: N#Cc1ccc(C2CCN(S(=O)(=O)C3CN(C(=O)NC4(C(F)(F)F)CC4)C3)CC2)cc1 [Compound 331, 3-[4-(4-cyanophenyl)piperidin-1-yl]sulfonyl-N-[1 (trifluoromethyl)cyclopropyl] azetidine-1-carboxamide]
- IC50: 10 to 100 nM

Compound: C[C@@H](NC(=O)N1CC(S(=O)(=O)N2CCC(c3c[nH]c4ncccc34)CC2)C1)C(F)(F)F [Compound 332, 3-[4-(1H-pyrrolo [2,3-b]pyridin-3-yl)piperidin-1-yl]sulfonyl-N-[(2R)-1,1,1-trifluoropropan-2-yl]azetidine-1-carboxamide]
- IC50: 10 to 100 nM

Compound: N#Cc1ccc(NC(=O)N2CC(S(=O)(=O)N3CCC(c4c[nH]c5ncccc45)CC3)C2)cc1 [Compound 335, N-(4-cyanophenyl)-3-[4-(1H-pyrrolo [2,3-b]pyridin-3-yl)piperidin-1-yl]sulfonylaze-tidine-1-carboxamide]
- IC50: 10 to 100 nM

Compound: CC(C)(C)OC(=O)NC1CC(S(=O)(=O)N2CCC(c3c[nH]c4ncccc34)CC2)C1 (stereo not drawn) [Compound 336, tert-butyl N-[3-[4-(1H-pyrrolo[2,3-b]pyridin-3-yl)piperidin-1-yl]sulfonylcyclobutyl] carbamate]
- IC50: 10 to 100 nM

Compound: O=S(=O)(C1CN(c2nc3ccccc3s2)C1)N1CCC(c2ccncc2)CC1 [Compound 337, 2-[3-(4-pyridin-4-ylpiperidin-1-yl)sulfonylaze-tidin-1-yl]-1,3-benzothiazole]
- IC50: 100 to 1000 nM

Compound: O=S(=O)(C1CN(c2nc3ccccc3o2)C1)N1CCC(c2c[nH]c3ncccc23)CC1 [Compound 338, 2-[3-[4-(1H-pyrrolo[2,3-b]pyridin-3-yl)piperidin-1-yl]sulfonylaze-tidin-1-yl]-1,3-benzoxazole]
- IC50: 10 to 100 nM

Compound: CC(C)(C)OC(=O)N1CC(S(=O)(=O)N2CCC(c3c[nH]c4cnccc34)CC2)C1 [Compound 339, tert-butyl 3-[4-(1H-pyrrolo[2,3-c]pyridin-3-yl)piperidin-1-yl]sulfonylaze-tidine-1-carboxylate]
- IC50: 1000 to 10000 nM

Compound: CN(C(=O)N1CC(S(=O)(=O)N2CCC(c3ccc(F)cc3)CC2)C1)C1CC1 [Compound 340, N-cyclopropyl-3-[4-(4-fluorophenyl)piperidin-1-yl]sulfonyl-N-methylazetidine-1-carboxamide]
- IC50: 1000 to 10000 nM

Compound: O=C(NC1(C(F)(F)F)CC1)N1CC(S(=O)(=O)N2CCC(c3ccc(Cl)cc3)CC2)C1 [Compound 341, 3-[4-(4-chlorophenyl)piperidin-1-yl]sulfonyl-N-[1-(trifluoromethyl)cyclopropyl] azetidine-1-carboxamide]
- IC50: 10 to 100 nM

Compound: Cc1noc(C)c1CC(=O)N1CC(S(=O)(=O)N2CCC(c3ccc(F)cc3)CC2)C1 [Compound 342, 2-(3,5-dimethyl-1,2-oxazol-4-yl)-1-[3-[4-(4-fluorophenyl)piperidin-1-yl]sulfonylazetidin-1-yl]ethanone]
- IC50: 10 to 100 nM

Compound: CC(C)N(CC(=O)N1CC(S(=O)(=O)N2CCC(c3ccc(F)cc3)CC2)C1)C(C)C [Compound 343, 2-[di(propan-2-yl)amino]-1-[3-[4-(4-fluorophenyl)piperidin-1-yl]sulfonylaze-tidin-l-yl]ethanone]
- IC50: 100 to 1000 nM

Compound: O=C(NC1(C(F)(F)F)CC1)[C@H]1C[C@H](S(=O)(=O)N2CCC(c3coc4cccnc34)CC2)C1 [Compound 345, trans-3-(4-furo[3,2-b]pyridin-3-ylpiperidin-1-yl)sulfonyl-N-[1-(trifluoromethyl)cyclopropyl] cyclobutane-1-carboxamide]
- IC50: 100 to 1000 nM

Compound: CC(C)(C)NC(=O)[C@H]1C[C@H](S(=O)(=O)N2CCC(c3coc4cccnc34)CC2)C1 [Compound 346, trans-N-tert-butyl-3-(4-furo[3,2-b]pyridin-3-ylpiperidin-1-yl) sulfonylcyclobutane-1-carboxamide]
- IC50: 1000 to 10000 nM

Compound: Cc1noc(C)c1CC(=O)N1CC(S(=O)(=O)N2CCC(c3ccc(C#N)cc3)CC2)C1 [Compound 349, 4-[1-[1-[2-(3,5-dimethyl-1,2-oxazol-4-yl)acetyl]azetidin-3-yl]sulfonylpiper-idin-4-yl]benzonitrile]
- IC50: 10 to 100 nM

Compound: CN(C(=O)N1CC(S(=O)(=O)N2CCC(c3ccc(C#N)cc3)CC2)C1)C1CC1 [Compound 350, 3-[4-(4-cyanophenyl)piperidin-1-yl]sulfonyl-N-cyclopropyl-N-methylazetidine-1-carboxamide]
- IC50: 1000 to 10000 nM

Compound: N#Cc1ccc(C2CCN(S(=O)(=O)C3CN(C(=O)CC(O)(C(F)(F)F)C(F)(F)F)C3)CC2)cc1 [Compound 351]
- IC50: 100 to 1000 nM

Compound: CC(C)(C)NC(=O)N1CC(S(=O)(=O)N2CCC(c3ccc(C#N)cc3)CC2)C1 [Compound 352, N-tert-butyl-3-[4-(4-cyanophenyl)piperidin-1-yl] sulfonylazetidine-1-carboxamide]
- IC50: 100 to 1000 nM

Compound: O=S(=O)(C1CN(Cc2ccccc2OC(F)F)C1)N1CCC(c2ccccc2)CC1 [Compound 353, 1-[1-[[2-(difluoromethoxy)phenyl]methyl]azetidin-3-yl]sulfonyl-4-phenylpiperidine]
- IC50: 1000 to 10000 nM

Compound: Cc1ccc(C2CCN(S(=O)(=O)C3CN(C(=O)OC(C)(C)C)C3)CC2)c(C)c1 [Compound 354, tert-butyl 3-[4-(2,4-dimethylphenyl)piperidin-1-yl]sulfonylaze-tidine-1-carboxylate]
- IC50: 1000 to 10000 nM

Compound: O=C(NC1(C(F)(F)F)CC1)N1CC(S(=O)(=O)N2CCC(c3c[nH]c4cnccc34)CC2)C1 [Compound 355, 3-[4-(1H-pyrrolo[2,3-c]pyridin-3-yl)piperidin-1-yl]sulfonyl-N-[1-(trifluoromethyl)cyclopropyl] azetidine-1-carboxamide]
- IC50: 1000 to 10000 nM

Compound: O=S(=O)(C1CN(c2ccccn2)C1)N1CCC(c2c[nH]c3cccnc23)CC1 [Compound 356, 3-[1-(1-pyridin-2-ylazetidin-3-yl)sulfonylpiper-idin-4-yl]-1H-pyrrolo[3,2-b]pyridine]
- IC50: 1000 to 10000 nM

Compound: CC(C)(C)OC(=O)N[C@H]1C[C@H](S(=O)(=O)N2CCC(c3c[nH]c4ncccc34)CC2)C1 [Compound 357, trans-tert-butyl-N-[3-[[4-(1H-pyrrolo[2,3-b]pyridin-3-yl)-1-piperidyl]sulfonyl]cyclobutyl]carbamate]
- IC50: 10 to 100 nM

Compound: CC(C)(C)OC(=O)N[C@H]1C[C@@H](S(=O)(=O)N2CCC(c3c[nH]c4ncccc34)CC2)C1 [Compound 358, cis-tert-butyl-N-[3-[[4-(1H-pyrrolo[2,3-b]pyridin-3-yl)-1-piperidyl]sulfonyl]cyclobutyl]carbamate]
- IC50: 10 to 100 nM

Compound: O=C(Nc1ccc(Cl)cc1Cl)N1CC(S(=O)(=O)N2CCC(c3coc4cccnc34)CC2)C1 [Compound 359, N-(2,4-dichlorophenyl)-3-(4-furo[3,2-b]pyridin-3-ylpiperidin-1-yl)sulfonylaze-tidine-1-carboxamide]
- IC50: 10 to 100 nM

Compound: Cc1c(F)cccc1NC(=O)N1CC(S(=O)(=O)N2CCC(c3coc4cccnc34)CC2)C1 [Compound 360, N-(3-fluoro-2-methylphenyl)-3-(4-furo[3,2-b]pyridin-3-ylpiperidin-1-yl)sulfonylaze-tidine-1-carboxamide]
- IC50: 10 to 100 nM

Compound: O=C(NC1(C(F)(F)F)CC1)[C@H]1C[C@@H](S(=O)(=O)N2CCC(c3coc4cccnc34)CC2)C1 [Compound 361, cis-3-(4-furo[3,2-b]pyridin-3-ylpiperidin-1-yl)sulfonyl-N-[1-(trifluoromethyl)cyclopropyl] cyclobutane-1-carboxamide]
- IC50: 10 to 100 nM

Compound: CC(C)(C)NC(=O)[C@H]1C[C@@H](S(=O)(=O)N2CCC(c3coc4cccnc34)CC2)C1 [Compound 362, cis-N-tert-butyl-3-(4-furo[3,2-b]pyridin-3-ylpiperidin-1-yl) sulfonylcyclobutane-1-carboxamide]
- IC50: 10 to 100 nM

Compound: Cc1c(F)cccc1NC(=O)N1CC(S(=O)(=O)N2CCC(c3c[nH]c4ncccc34)CC2)C1 [Compound 363, N-(3-fluoro-2-methylphenyl)-3-[4-(1H-pyrrolo[2,3-b]pyridin-3-yl)piperidin-1-yl]sulfonylaze-tidine-1-carboxamide]
- IC50: 10 to 100 nM

Compound: Cc1ccccc1NC(=O)N1CC(S(=O)(=O)N2CCC(c3c[nH]c4ncccc34)CC2)C1 [Compound 364, N-(2-methylphenyl)-3-[4-(1H-pyrrolo[2,3-b]pyridin-3-yl)piperidin-1-yl]sulfonylaze-tidine-1-carboxamide]
- IC50: 10 to 100 nM

Compound: Cc1ccc(F)cc1NC(=O)N1CC(S(=O)(=O)N2CCC(c3coc4cccnc34)CC2)C1 [Compound 365, N-(5-fluoro-2-methylphenyl)-3-(4-furo[3,2-b]pyridin-3-ylpiperidin-1-yl)sulfonylaze-tidine-1-carboxamide]
- IC50: 10 to 100 nM

Compound: Cc1ccc(F)cc1NC(=O)N1CC(S(=O)(=O)N2CCC(c3ccc(C#N)cc3)CC2)C1 [Compound 366, 3-[4-(4-cyanophenyl)piperidin-1-yl]sulfonyl-N-(5-fluoro-2-methylphenyl) azetidine-1-carboxamide]
- IC50: 100 to 1000 nM

Compound: Cc1ccc(F)cc1NC(=O)N1CC(S(=O)(=O)N2CCC(c3ccc(F)cc3)CC2)C1 [Compound 367, N-(5-fluoro-2-methylphenyl)-3-[4-(4-fluorophenyl)piperidin-1-yl]sulfonylaze-tidine-1-carboxamide]
- IC50: 1000 to 10000 nM

Compound: Cc1ccc2c(C3CCN(S(=O)(=O)C4CN(C(=O)Nc5cc(F)ccc5C)C4)CC3)c[nH]c2n1 [Compound 368, N-(5-fluoro-2-methylphenyl)-3-[4-(6-methyl-1H-pyrrolo[2,3-b]pyridin-3-yl)piperidin-1-yl]sulfonylaze-tidine-1-carboxamide]
- IC50: 1000 to 10000 nM

Compound: Cc1ccccc1NC(=O)N1CC(S(=O)(=O)N2CCC(c3coc4cccnc34)CC2)C1 [Compound 369, 3-(4-furo[3,2-b]pyridin-3-ylpiperidin-1-yl)sulfonyl-N-(2-methylphenyl) azetidine-1-carboxamide]
- IC50: 100 to 1000 nM
